Reference: ChEMBL document CHEMBL5634151, “Anti-adipogenic action of a novel oxazole derivative through activation of AMPK pathway” (Eur J Med Chem, 2023)
Activity calls are given as the source filed them. The calls are words filed in the database; no cut-off is given here.

Experiments:
3T3-L1 [1] = assay: Cytotoxicity against mouse 3T3-L1 pre-adipocyte cells assessed as reduction in cell viability at 20 uM incubated for 48 hrs by MTT assay; assay type: toxicity, cell-based; conditions: 3t3-l1, 48 h
3T3-L1 [2] = assay: Cytotoxicity against mouse 3T3-L1 pre-adipocyte cells assessed as reduction in cell viability >20 uM incubated for 48 hrs by MTT assay; assay type: toxicity, cell-based; conditions: 3t3-l1, 48 h
3T3-L1 [3] = assay: Anti-adipogenic activity in MDI-cocktail differentiated mouse 3T3-L1 pre-adipocyte cells assessed as inhibition of adipogenesis at 20 uM by Oil Red O staining based microscopic analysis relative to control; assay type: functional
3T3-L1 [4] = assay: Anti-adipogenic activity in MDI-cocktail differentiated mouse 3T3-L1 pre-adipocyte cells assessed as inhibition of adipogenesis by Oil Red O staining based microscopic analysis; assay type: functional, cell-based
3T3-L1 [5] = assay: Anti-adipogenic activity in MDI-cocktail differentiated mouse 3T3-L1 pre-adipocyte cells assessed as inhibition of adipogenesis at 30 uM by Oil Red O staining based microscopic analysis; assay type: functional, cell-based

Row | SMILES | Activity (3T3-L1 [1]) | Activity (3T3-L1 [2]) | further results
1 | Clc1ccc(-c2cnc(-c3ccc[n+](Cc4ccc(Cl)c(Cl)c4)c3)o2)cc1.[Br-] | Toxic | Toxic | –
2 | Cc1ccc(-c2cnc(-c3ccc[n+](Cc4ccc(Cl)cc4)c3)o2)cc1.[Br-] | – | Toxic | –
3 | CC(C)=CC[n+]1cccc(-c2ncc(-c3ccc(C)cc3)o2)c1.[Br-] | Toxic | Toxic | –
4 | Cc1ccc(-c2cnc(-c3ccc[n+](Cc4ccc(C(F)(F)F)cc4)c3)o2)cc1.[Br-] | Non-Toxic | Toxic | inhibition at 20 µM (3T3-L1 [3]): > 70%
5 | COc1ccc(-c2cnc(-c3ccc[n+](CC=C(C)C)c3)o2)cc1.[Br-] | – | Toxic | –
6 | Clc1ccc(C[n+]2cccc(-c3ncc(-c4ccccc4)o3)c2)cc1.[Br-] | – | Toxic | –
7 | Br.Cc1ccc(-c2cnc(-c3ccc[n+](Cc4ccc([N+](=O)[O-])cc4)c3)o2)cc1 | – | Toxic | –
8 | COc1ccc(-c2cnc(-c3ccc[n+](C/C=C(/C)CCC=C(C)C)c3)o2)cc1.[Br-] | Toxic | Toxic | –
9 | Cc1cccc(C[n+]2cccc(-c3ncc(-c4ccc(Cl)cc4)o3)c2)c1.[Br-] | Non-Toxic | Toxic | inhibition at 20 µM (3T3-L1 [3]): > 70%
10 | Br.O=[N+]([O-])c1ccc(C[n+]2cccc(-c3ncc(-c4ccccc4)o3)c2)cc1 | – | Toxic | –
11 | CC(C)=CC[n+]1cccc(-c2ncc(-c3ccccc3)o2)c1.[Br-] | – | Toxic | –
12 | COc1ccc(-c2cnc(-c3ccc[n+](Cc4ccc(Cl)cc4)c3)o2)cc1.[Br-] | – | Toxic | –
13 | COc1ccc(-c2cnc(-c3ccc[n+](Cc4ccc(F)cc4)c3)o2)cc1.[Br-] | – | Toxic | –
14 | COc1ccc(-c2cnc(-c3ccc[n+](Cc4cccc(C)c4)c3)o2)cc1.[Br-] | – | Toxic | –
15 | COc1ccc(-c2cnc(-c3ccc[n+](Cc4ccc(Cl)c(Cl)c4)c3)o2)cc1.[Br-] | Non-Toxic | Toxic | inhibition at 20 µM (3T3-L1 [3]): > 70%
16 | Fc1ccc(C[n+]2cccc(-c3ncc(-c4ccccc4)o3)c2)cc1.[Br-] | – | Toxic | –

Row | SMILES | Activity (3T3-L1 [1]) | Activity (3T3-L1 [2]) | further results
17 | Fc1ccc(C[n+]2cccc(-c3ncc(-c4ccc(Cl)cc4)o3)c2)cc1.[Br-] | – | Toxic | –
18 | FC(F)(F)c1ccc(C[n+]2cccc(-c3ncc(-c4ccccc4)o3)c2)cc1.[Br-] | – | Toxic | –
19 | CC(C)=CCC/C(C)=C\C[n+]1cccc(-c2ncc(-c3ccc(Cl)cc3)o2)c1.[Br-] | Toxic | Toxic | –
20 | Br.COc1ccc(-c2cnc(-c3ccc[n+](Cc4ccc([N+](=O)[O-])cc4)c3)o2)cc1 | – | Toxic | –
21 | Cc1ccc(-c2cnc(-c3ccc[n+](Cc4ccc(Cl)c(Cl)c4)c3)o2)cc1.[Br-] | Toxic | Toxic | –
22 | Cc1cccc(C[n+]2cccc(-c3ncc(-c4ccccc4)o3)c2)c1.[Br-] | – | Toxic | –
23 | FC(F)(F)c1ccc(C[n+]2cccc(-c3ncc(-c4ccc(Cl)cc4)o3)c2)cc1.[Br-] | – | Toxic | –
24 | CC(C)=CC[n+]1cccc(-c2ncc(-c3ccc(Cl)cc3)o2)c1.[Br-] | – | Toxic | –
25 | Clc1ccc(C[n+]2cccc(-c3ncc(-c4ccccc4)o3)c2)cc1Cl.[Br-] | Non-Toxic | Toxic | inhibition at 20 µM (3T3-L1 [3]): > 70%
26 | Br.O=[N+]([O-])c1ccc(C[n+]2cccc(-c3ncc(-c4ccc(Cl)cc4)o3)c2)cc1 | – | Toxic | –
27 | CC(C)=CCC/C(C)=C\C[n+]1cccc(-c2ncc(-c3ccc(C)cc3)o2)c1.[Br-] | Toxic | Toxic | –
28 | CC(C)=CCOc1ccc(-c2cnc(-c3cccnc3)o2)cc1 | – | – | IC50 (3T3-L1 [4]; read-out: IC50): 103 µM; IC50 (3T3-L1 [4]; read-out: pIC50 (converted)): 104 µM; Activity (3T3-L1 [5]): Active
29 | Cc1ccc(-c2cnc(-c3ccc[n+](Cc4ccc(F)cc4)c3)o2)cc1.[Br-] | – | Toxic | –
30 | COc1ccc(-c2cnc(-c3ccc[n+](Cc4ccc(C(F)(F)F)cc4)c3)o2)cc1.[Br-] | – | Toxic | –
31 | Clc1ccc(C[n+]2cccc(-c3ncc(-c4ccc(Cl)cc4)o3)c2)cc1.[Br-] | – | Toxic | –
